Measured values reported in article PMC3874090, “Synthesis and Evaluation of Anti-acetylcholinesterase Activity of 2-(2-(4-(2-Oxo-2-phenylethyl)piperazin-1-yl) ethyl)Isoindoline-1,3-dione Derivatives with Potential Anti-Alzheimer Effects” (Iranian Journal of Basic Medical Sciences, 2013).
Read-outs that look alike come from different tables or passages of the source.

Experiments:
[1] = molecular target: T1, acetylcholinesterase from electric eel (Electrophorus electricus, UniProt O42275); assay: biochemical; conditions: Ellman test, electric eel AChE
T1 construct: purchased Sigma-Aldrich (Steinheim, Germany) Type V-S
T1 sequence (O42275 24-633): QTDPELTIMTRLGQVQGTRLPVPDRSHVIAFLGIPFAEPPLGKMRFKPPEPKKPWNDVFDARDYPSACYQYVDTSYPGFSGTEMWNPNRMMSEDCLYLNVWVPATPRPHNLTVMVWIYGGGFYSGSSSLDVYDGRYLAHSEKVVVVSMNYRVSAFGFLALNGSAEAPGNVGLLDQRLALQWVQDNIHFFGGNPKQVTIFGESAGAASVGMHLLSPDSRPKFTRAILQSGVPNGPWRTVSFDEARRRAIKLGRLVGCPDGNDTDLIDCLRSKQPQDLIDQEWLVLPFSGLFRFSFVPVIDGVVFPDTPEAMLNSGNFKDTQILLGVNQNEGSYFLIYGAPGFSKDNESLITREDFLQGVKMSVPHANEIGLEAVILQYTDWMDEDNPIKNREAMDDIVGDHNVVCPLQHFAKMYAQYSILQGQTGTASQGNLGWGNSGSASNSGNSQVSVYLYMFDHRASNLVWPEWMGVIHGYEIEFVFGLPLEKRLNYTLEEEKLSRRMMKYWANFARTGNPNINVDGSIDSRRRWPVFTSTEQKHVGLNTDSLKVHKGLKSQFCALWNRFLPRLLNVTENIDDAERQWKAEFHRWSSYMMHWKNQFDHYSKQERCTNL
Experimental: Lyophilized powder of acetylcholinesterase from electric eel source (AChE, E.C. 3.1.1.7, Type V-S, 1000 unit) was purchased from Sigma-Aldrich (Steinheim, Germany). 5,5'-Dithiobis-(2-nitrobenzoic acid, DTNB), potassium dihydrogen phosphate (KH2PO4), dipotassium hydrogen phosphate (K2HPO4), potassium hydroxide (KOH), sodium hydrogen carbonate (NaHCO3), and acetylthiocholine iodide were purchased from Fluka (Buchs, Switzerland).
According to the literature, the Ellman test was performed for assessment of the anticholinesterase activity of intended compounds in vitro. […] After rapid and immediate mixing the change of absorption was measured at 412 nm. The blank reading contained 3 ml buffer, 200 µl water, 100 µl DTNB and 20 µl substrate. The reaction rates were calculated, and the percent inhibition of test compounds was determined. Each concentration was analyzed in triplicate, and IC50 ± SD values were determined graphically from inhibition curves (log inhibitor concentration vs percent of inhibition) ([21], [22]).

acetylcholinesterase = molecular target: acetylcholinesterase; design: method as in Sugimoto and collegues [20]; conditions: in Figure 2; ref Sugimoto and collegues [20]; read-out: IC50 of lead compound; cited from earlier work
[2] = preincubated 15 min at 25 °C, pH 8.0, triplicate, read-out: IC50 (μM ± SD), acetylcholinesterase inhibitory activity

| Compound | IC50 [1, 2] [µM] | also measured |
| --- | --- | --- |
| O=C(CN1CCN(CCN2C(=O)c3ccccc3C2=O)CC1)c1ccccc1 [Compound 4a, 2-(2-(4-(2-Oxo-2-phenylethyl)piperazin-1-yl)ethyl)isoindoline-1,3-dione] | 45.6 ± 2.78 |  |
| O=C(CN1CCN(CCN2C(=O)c3ccccc3C2=O)CC1)c1ccc(F)cc1 [Compound 4b, 2-(2-(4-(2-(4-Fluorophenyl)-2-oxoethyl)piperazin-1-yl)ethyl)isoindoline-1,3-dione] |  | IC50 ([1]; read-out: IC50, acetylcholinesterase inhibition): 16.4 ± 1.07 µM |
| O=C(CN1CCN(CCN2C(=O)c3ccccc3C2=O)CC1)c1cccc(Cl)c1 [Compound 4c, 2-(2-(4-(2-(3-Chlorophenyl)-2-oxoethyl)piperazin-1-yl)ethyl)isoindoline-1,3-dione] | 28.2 ± 2.3 |  |
| O=C(CN1CCN(CCN2C(=O)c3ccccc3C2=O)CC1)c1ccc(Cl)cc1Cl [Compound 4d, 2-(2-(4-(2-(2,4-Dichlorophenyl)-2-oxoethyl)piperazin-1-yl)ethyl)isoindoline-1,3-dione] | 63 ± 4.06 |  |
| O=C(CN1CCN(CCN2C(=O)c3ccccc3C2=O)CC1)c1ccc2ccccc2c1 [Compound 4e, 2-(2-(4-(2-(Naphthalen-2-yl)-2-oxoethyl)piperazin-1-yl)ethyl)isoindoline-1,3-dione] | 40.5 ± 2.47 |  |
| O=C1c2ccccc2C(=O)N1CCC1CCN(Cc2ccccc2)CC1 [Compound A] |  | IC50 (acetylcholinesterase): 0.03 µM |
